The values that follow are results of earlier work, collected in patent publication US20050249799A1, “Polymeric drug delivery system for hydrophobic drugs” (Spherics, Inc., priority 2004, published 2005).

Test in data set [1]: not given
This is another data set of the same source.

Where two headings read alike, the source gives them in different places.

A word on the bioavailability: it is the share of a dose that reaches the circulation, judged against a reference dose that is usually intravenous. For `NC(=O)N1c2ccccc2C=Cc2ccccc21` [Carbamazepine, 5H-dibenz[b,f]azepine-5-carboxamide], the “time to peak plasma concentrations” value (oral) is 4 to 24 h. Moreover, the bioavailability (tablet form) is 89%. Further, the solubility in water result in data set [1] was “practically insoluble”.
`Nc1nc2c(ncn2COCCO)c(=O)[nH]1` [Acyclovir, 2-amino-1,9-dihydro-9-[(2-hydroxyethoxy)methyl]-6H-purin-6-one]: the absolute bioavailability (200 mg dose given every 4 hours) is 20%.
`CCC(C)n1ncn(-c2ccc(N3CCN(c4ccc(OCC5COC(Cn6cncn6)(c6ccc(Cl)cc6Cl)O5)cc4)CC3)cc2)c1=O` (centres unmarked) [itraconazole, Itraconazole]: the bioavailability (oral capsule) was 55%.
Usually half-life stands for how long it takes for the measured level to halve. `C#C[C@]1(O)CC[C@H]2[C@@H]3CCC4=Cc5oncc5C[C@]4(C)[C@H]3CC[C@@]21C` [Danazol, 17a-Pregna-2,4-dien-20-yno[2,3-d]-isoxazol-17-ol]: where the note is “in vivo”, the half-life was 4 to 5 h. For the same compound, under “oral”, the “increase in plasma concentration on doubling the dose” value was 30-40% and the “time to peak plasma concentrations” value is at most 2 h.
